This passage reports Activity and Crop_yield results from ChEMBL document CHEMBL3044870, “Effect of clomazone on various market classes of dry beans” (Crop Prot, 2007).

Holding throughout (format): organism-based
Holding throughout (settings): in vivo, other

In data set [1] the test system is Phaseolus vulgaris. Kind of data set: Phytotoxicity against Phaseolus vulgaris (kidney beans) assessed as visual crop injury at 2232 g a.i./ha applied pre-emergence 1 to 2 days post-planting measured on day 14 post-emergence relative to control.
Data set [2] deals with Phaseolus vulgaris. Kind of data set: Phytotoxicity against Phaseolus vulgaris (dry beans) assessed as visual crop injury at 2232 g a.i./ha applied pre-emergence 1 to 2 days post-planting measured on day 14 post-emergence relative to control.
In data set [3] the test system is Phaseolus vulgaris. The data set can be described thus: Phytotoxicity against Phaseolus vulgaris (kidney beans) assessed as yield at 1116 g a.i./ha applied pre-emergence 1 to 2 days post-planting measured on day 42 post-emergence (reference value: 2.3 tons/ha).
Data set [4] deals with Phaseolus vulgaris. Kind of data set: Phytotoxicity against Phaseolus vulgaris (brown beans) assessed as yield at 2232 g a.i./ha applied pre-emergence 1 to 2 days post-planting measured on day 42 post-emergence (reference value: 2.5 tons/ha).
Data set [5] concerns Phaseolus vulgaris. The data set can be described thus: Phytotoxicity against Phaseolus vulgaris (otebo beans) assessed as plant height at 2232 g a.i./ha applied pre-emergence 1 to 2 days post-planting measured on day 28 post-emergence (reference value: 38 cm).
In data set [6] the test system is Phaseolus vulgaris. Kind of data set: Phytotoxicity against Phaseolus vulgaris (kidney beans) assessed as plant height at 1116 g a.i./ha applied pre-emergence 1 to 2 days post-planting measured on day 28 post-emergence (reference value: 37 cm).
In data set [7] the test system is Phaseolus vulgaris. Kind of data set: Phytotoxicity against Phaseolus vulgaris (cranberry beans) assessed as plant height at 1116 g a.i./ha applied pre-emergence 1 to 2 days post-planting measured on day 28 post-emergence (reference value: 37 cm).
Data set [8] concerns Phaseolus vulgaris. Kind of data set: Phytotoxicity against Phaseolus vulgaris (brown beans) assessed as plant height at 2232 g a.i./ha applied pre-emergence 1 to 2 days post-planting measured on day 28 post-emergence (reference value: 37 cm).

For the compound `CC1(C)CON(Cc2ccccc2Cl)C1=O` [CLOMAZONE], the Activity in data set [1] amounted to 10%; in data set [2] it was 10%; in data set [5], 34 cm; in data set [6] it was 35 cm; in data set [7], 35 cm; in data set [8], 35 cm. For the same compound, the Crop_yield in data set [3] was found to be 2.3 tons/ha; in data set [4] it was 2.7 tons/ha.
